# According to US20260092179A1, “GENETICALLY MODIFIED HOST CELLS PRODUCING VIOLACEIN, ANALOGUES, AND DERIVATIVES THEREOF” (OCTARINE BIO APS, priority 2022, published 2026):
# Legend:
# [1] = Acidic pH stability of dyed fabrics (colour fastness, ΔE); format: physicochemical; conditions: pH 5 with HCl
# Experimental: (§1) In order to assess the stability and colour fastness of violacein and violacein derivatives dyed onto fabrics, dyed fabrics were subjected to a number of conditions. Fabrics were dyed according to Example 18 and colour coordinates and colour change before and after exposure to a given condition were determined as described in Example 18. To measure temperature stability, fabrics were incubated in an oven set to 80° c. for 4 h. To measure stability under acid and alkaline conditions, fabrics were fully submerged in water solutions set to pH 8 with NaOH and pH 5 with HCl and incubated at room temperature for 30 minutes. Fabrics were then incubated at 37° c. for 4 h. To measure stability during laundering, fabrics were washed at 30° c. under the “mix” setting of a Siemens IQ300 washing machine, then dried in a Siemens IQ300 dryer until dry. To measure artificial light stability, fabrics were placed under an LED lamp at room temperature for 16 h. To measure UV light stability, fabrics were placed under a UV lamp at room temperature for 1 h.
# [2] = Artificial light stability of dyed fabrics (colour fastness, ΔE); format: physicochemical; conditions: for ΔE: before vs after LED lamp, room temperature, 16 h
# Experimental: as §1
# [3] = UV stability of dyed fabrics (colour fastness, ΔE); format: physicochemical; conditions: for ΔE: before vs after UV lamp, room temperature, 1 h
# Experimental: as §1
# [4] = Free radical scavenging ability of dyed Nylon 6,6 fabric (DPPH); format: biochemical; conditions: dyed Nylon 6,6 fabric strip
# Experimental: Violacein is reported as being a potent antioxidant able to effectively scavenge free radicals. […] To test this, 1.5×1.5 cm dyed Nylon 6,6 fabric strips were incubated in the dark at room temperature for 1 h in 5 mL of a 5×10^−5 M DPPH free radical solution in 100% ethanol. Undyed Nylon 6,6 fabric strips were included as a negative control. After 1 h absorbance was measured at 517 nm and % scavenging ability calculated as above.
# [5] = Acrylic, after test (LED lamp, room temperature, 16 h)
# [6] = Bleached cotton, after test (LED lamp, room temperature, 16 h)
# [7] = Diacetate, after test (LED lamp, room temperature, 16 h)
# [8] = Nylon 6,6, after test (LED lamp, room temperature, 16 h)
# [9] = Polyester, after test (LED lamp, room temperature, 16 h)
# [10] = Wool, after test (LED lamp, room temperature, 16 h)
# [11] = Acrylic, after test (UV lamp, room temperature, 1 h)
# [12] = Bleached cotton, after test (UV lamp, room temperature, 1 h)
# [13] = Diacetate, after test (UV lamp, room temperature, 1 h)
# [14] = Nylon 6,6, after test (UV lamp, room temperature, 1 h)
# [15] = Polyester, after test (UV lamp, room temperature, 1 h)
# [16] = Wool, after test (UV lamp, room temperature, 1 h)
structure (smiles),measurement,setting,value
O=C1NC(c2c[nH]c3ccc(O)cc23)=C/C1=C1\C(=O)Nc2ccccc21 [violacein],L,"[1]; Acrylic, After test",66.03
same,a,"[1]; Acrylic, After test",2.78
same,b,"[1]; Acrylic, After test",0.02
same,L,"[1]; Acrylic, Before test",65.53
same,a,"[1]; Acrylic, Before test",2.41
same,b,"[1]; Acrylic, Before test",0.93
same,ΔE,"[1]; Acrylic, before and after the stability test",1.10
same,L,"[1]; Bleached cotton, After test",59.6
same,a,"[1]; Bleached cotton, After test",2.72
same,b,"[1]; Bleached cotton, After test",−7.71
same,L,"[1]; Bleached cotton, Before test",59.65
same,a,"[1]; Bleached cotton, Before test",3.71
same,b,"[1]; Bleached cotton, Before test",−6.68
same,ΔE,"[1]; Bleached cotton, before and after the stability test",1.43
same,L,"[1]; Diacetate, After test",45.59
same,a,"[1]; Diacetate, After test",9.13
same,b,"[1]; Diacetate, After test",−11.74
same,L,"[1]; Diacetate, Before test",45.97
same,a,"[1]; Diacetate, Before test",8.41
same,b,"[1]; Diacetate, Before test",−13
same,ΔE,"[1]; Diacetate, before and after the stability test",1.50
same,L,"[1]; Nylon 6,6, After test",34.94
same,a,"[1]; Nylon 6,6, After test",5.43
same,b,"[1]; Nylon 6,6, After test",−20.31
same,L,"[1]; Nylon 6,6, Before test",34.82
same,a,"[1]; Nylon 6,6, Before test",5.47
same,b,"[1]; Nylon 6,6, Before test",−20.22
same,ΔE,"[1]; Nylon 6,6, before and after the stability test",0.16
same,L,"[1]; Polyester, After test",68.04
same,a,"[1]; Polyester, After test",1.96
same,b,"[1]; Polyester, After test",−1.34
same,L,"[1]; Polyester, Before test",66.71
same,a,"[1]; Polyester, Before test",3.52
same,b,"[1]; Polyester, Before test",−2.04
same,ΔE,"[1]; Polyester, before and after the stability test",2.17
same,L,"[1]; Wool, After test",69.34
same,a,"[1]; Wool, After test",1.2
same,b,"[1]; Wool, After test",0.61
same,L,"[1]; Wool, Before test",69.04
same,a,"[1]; Wool, Before test",0.77
same,b,"[1]; Wool, Before test",1.2
same,ΔE,"[1]; Wool, before and after the stability test",0.79
same,L,[2]; [5],69.82
same,a,[2]; [5],3.01
same,b,[2]; [5],3.46
same,L,"[2]; Acrylic, before test",65.94
same,a,"[2]; Acrylic, before test",3.06
same,b,"[2]; Acrylic, before test",1.37
same,ΔE,[2]; Acrylic,4.41
same,L,[2]; [6],62.61
same,a,[2]; [6],4.18
same,b,[2]; [6],−6.26
same,L,"[2]; Bleached cotton, before test",60.03
same,a,"[2]; Bleached cotton, before test",2.81
same,b,"[2]; Bleached cotton, before test",−7.43
same,ΔE,[2]; Bleached cotton,3.15
same,L,[2]; [7],52.2
same,a,[2]; [7],6.06
same,b,[2]; [7],1.03
same,L,"[2]; Diacetate, before test",43.88
same,a,"[2]; Diacetate, before test",8.03
same,b,"[2]; Diacetate, before test",13.02
same,ΔE,[2]; Diacetate,14.73
same,L,[2]; [8],34.82
same,a,[2]; [8],4.72
same,b,[2]; [8],−17.83
same,L,"[2]; Nylon 6,6, before test",38.2
same,a,"[2]; Nylon 6,6, before test",11.52
same,b,"[2]; Nylon 6,6, before test",−16.9
same,ΔE,"[2]; Nylon 6,6",7.65
same,L,[2]; [9],73.11
same,a,[2]; [9],2.28
same,b,[2]; [9],1.66
same,L,"[2]; Polyester, before test",68.58
same,a,"[2]; Polyester, before test",3.06
same,b,"[2]; Polyester, before test",−1.75
same,ΔE,[2]; Polyester,5.72
same,L,[2]; [10],71.32
same,a,[2]; [10],1.18
same,b,[2]; [10],3.25
same,L,"[2]; Wool, before test",67.82
same,a,"[2]; Wool, before test",1.06
same,b,"[2]; Wool, before test",0.85
same,ΔE,[2]; Wool,4.25
same,L,[3]; [11],62.36
same,a,[3]; [11],1.52
same,b,[3]; [11],0.96
same,L,"[3]; Acrylic, before test",59.81
same,a,"[3]; Acrylic, before test",2.39
same,b,"[3]; Acrylic, before test",0.08
same,ΔE,[3]; Acrylic,2.83
same,L,[3]; [12],58.38
same,a,[3]; [12],3.17
same,b,[3]; [12],−5.79
same,L,"[3]; Bleached cotton, before test",58.11
same,a,"[3]; Bleached cotton, before test",3.63
same,b,"[3]; Bleached cotton, before test",−8.4
same,ΔE,[3]; Bleached cotton,2.66
same,L,[3]; [13],43.08
same,a,[3]; [13],10.1
same,b,[3]; [13],−9.59
same,L,"[3]; Diacetate, before test",41.1
same,a,"[3]; Diacetate, before test",9.04
same,b,"[3]; Diacetate, before test",−13.41
same,ΔE,[3]; Diacetate,4.43
same,L,[3]; [14],35.29
same,a,[3]; [14],4.36
same,b,[3]; [14],−18.03
same,L,"[3]; Nylon 6,6, before test",34.58
same,a,"[3]; Nylon 6,6, before test",4.58
same,b,"[3]; Nylon 6,6, before test",−19.61
same,ΔE,"[3]; Nylon 6,6",1.75
same,L,[3]; [15],68.13
same,a,[3]; [15],1.99
same,b,[3]; [15],−0.71
same,L,"[3]; Polyester, before test",67.13
same,a,"[3]; Polyester, before test",1.68
same,b,"[3]; Polyester, before test",−1.12
same,ΔE,[3]; Polyester,1.12
same,L,[3]; [16],68.91
same,a,[3]; [16],2.13
same,b,[3]; [16],1.49
same,L,"[3]; Wool, before test",68.14
same,a,"[3]; Wool, before test",0.77
same,b,"[3]; Wool, before test",1.77
same,ΔE,[3]; Wool,1.59
same,OD517,[4]; 1 h in the dark in 5×10^−5 M DPPH in 100% ethanol,1.64
same,Scavenging ability %,"[4]; 1 h in the dark in 5×10^−5 M DPPH, vs undyed control",27.53%
